Test system: aged brain endothelial cells
Experiment: scRNA-seq of aged brain endothelial cells after pharmacologic ALPL inhibition
Format: in vivo, mice
Description: FIG. 21A includes an image and histogram showing holo-transferrin uptake in ALPL+/− cortical vasculature (n=6, paired two-sided t-test). FIG. 21B is an MA plot of differentially expressed genes (FDR<0.05) from aged mice after administration of ALPL inhibitor and vehicle (7,036 capillary cells, n=4 mice pooled per group, MAST with Bonferroni correction). FIG. 21C includes violin plots showing transferrin receptor (Tfrc) expression across vessel segments, following the paradigm in FIG. 21B (1,171 arterial, 7,036 capillary, and 430 venous cells, MAST with Bonferroni correction).
Cell lysis, first-strand synthesis and cDNA synthesis was performed using the Smart-seq-2 protocol as described previouslyl39-141 in 384-well format, with some modifications. Briefly, brain endothelial cells (CD31+/CD45−) were sorted using SH800S (Sony) sorters on the highest purity setting (‘Single cell’). Plasma-647 fluorescence was recorded for each cell and corresponding sorted well. cDNA synthesis was performed using the Smart-seq2 protocol140-142. After cDNA amplification (23 cycles), concentrations were determined via the PicoGreen quantitation assay. Cells passing quality control were selected through custom scripts and cDNA concentrations normalized to ˜0.2 ng/μL using the TPPLabtech Mosquito HTS and Mantis (Formulatrix) robotic platforms. Libraries were prepared and pooled using the Nextera XT kits (Illumina), following the manufacturer's instructions. Libraries were then sequenced on the Nextseq or Novaseq (Illumina) using 2×75 bp paired-end reads and 2×8 bp index reads with a 200-cycle kit (Illumina, 20012861). Samples were sequenced at an average of 1.5M reads per cell. Raw sequencing files were demultiplexed with bcl2fastq, reads were aligned using STAR, and gene counts made using HTSEQ version 0.6.1p1. Downstream analysis was performed as previously described58, and plasma fluorescence of each cell correlated (Spearman) with gene expression and zonation59.
Mice were treated with six doses of ALPL inhibitor (613810, Millipore Sigma; 2,5-Dimethoxy-N-(quinolin-3-yl)benzenesulfonamide, Tissue-Nonspecific Alkaline Phosphatase Inhibitor, MLS-0038949; C17H16N2O4S; CAS #496014-13-2) or ‘Vehicle’ control over three days, injected intraperitoneally twice per day (8.75 mg/kg). ‘Vehicle’ treatments consisted of phosphate-buffered saline (PBS) with a matching concentration of DMSO (less than 4% v/v). After the sixth treatment, mice were injected intravenously with 150 μL of Atto 647N-labeled plasma (as above), human holo-transferrin (T4132, Millipore Sigma, 40 mg/kg), transferrin receptor antibody (BE0175, BioXcell, 20 mg/kg), or 3-kDa dextran-FITC (10 mg/kg, Thermo Fisher). Plasma, human holo-transferrin, and transferrin receptor antibody were infused 20 h before sacrifice, while 3-kDa dextran-FITC was given 2 h before sacrifice, as previously described143. After extensive perfusion, CNS cells were isolated as described above. Cell pellets were additionally incubated in Red Blood Cell Lysis Buffer (Millipore Sigma, R7757) for 2 minutes to ensure high CNS cell purity. Brain endothelial cells were distinguished by CD3 I+/CD45− staining and parenchymal cells by CD31−/CD45− staining. […]

COc1ccc(OC)c(S(=O)(=O)Nc2cnc3ccccc3c2)c1 [ALPL inhibitor, 2,5-Dimethoxy-N-(quinolin-3-yl)benzenesulfonamide]
TFRC expression on the aged BBB (aged BBB, upon ALPL inhibition): strongly upregulated | ferroportin expression on the aged BBB (aged BBB, upon ALPL inhibition): strongly upregulated | transferrin receptor expression increase in capillaries (aged mice, capillary cells, after ALPL inhibition): ~70% | transferrin receptor expression increase in venous cells (aged mice, venous cells, after ALPL inhibition): ~89% | pct, ALPL inh., Fcgrt (receptor gene Fcgrt, ALPL inhibitor-treated group): 0.849 | % increase, Fcgrt (receptor gene Fcgrt, aged BBB, ALPL inhibition vs control): 24.2% | pct, ALPL inh., Lpar6 (receptor gene Lpar6, ALPL inhibitor-treated group): 0.446 | % increase, Lpar6 (receptor gene Lpar6, aged BBB, ALPL inhibition vs control): 37.0% | pct, ALPL inh., Scarb1 (receptor gene Scarb1, ALPL inhibitor-treated group): 0.45 | % increase, Scarb1 (receptor gene Scarb1, aged BBB, ALPL inhibition vs control): 11.1% | pct, ALPL inh., Tfrc (receptor gene Tfrc, ALPL inhibitor-treated group): 0.723 | % increase, Tfrc (receptor gene Tfrc, aged BBB, ALPL inhibition vs control): 70.1% | pct, ALPL inh., Slc6a6 (transporter gene Slc6a6, ALPL inhibitor-treated group): 0.99 | % increase, Slc6a6 (transporter gene Slc6a6, aged BBB, ALPL inhibition vs control): 24.9% | pct, ALPL inh., Slc7a1 (transporter gene Slc7a1, ALPL inhibitor-treated group): 0.72 | % increase, Slc7a1 (transporter gene Slc7a1, aged BBB, ALPL inhibition vs control): 12.2% | pct, ALPL inh., Slc16a2 (transporter gene Slc16a2, ALPL inhibitor-treated group): 0.66 | % increase, Slc16a2 (transporter gene Slc16a2, aged BBB, ALPL inhibition vs control): 16.5% | pct, ALPL inh., Slc16a4 (transporter gene Slc16a4, ALPL inhibitor-treated group): 0.42 | % increase, Slc16a4 (transporter gene Slc16a4, aged BBB, ALPL inhibition vs control): 18.8% | pct, ALPL inh., Slc22a8 (transporter gene Slc22a8, ALPL inhibitor-treated group): 0.71 | % increase, Slc22a8 (transporter gene Slc22a8, aged BBB, ALPL inhibition vs control): 11.0% | pct, ALPL inh., Slc25a1 (transporter gene Slc25a1, ALPL inhibitor-treated group): 0.24 | % increase, Slc25a1 (transporter gene Slc25a1, aged BBB, ALPL inhibition vs control): 10.7% | pct, ALPL inh., Slc26a10 (transporter gene Slc26a10, ALPL inhibitor-treated group): 0.19 | % increase, Slc26a10 (transporter gene Slc26a10, aged BBB, ALPL inhibition vs control): 17.8% | pct, ALPL inh., Slc39a8 (transporter gene Slc39a8, ALPL inhibitor-treated group): 0.34 | % increase, Slc39a8 (transporter gene Slc39a8, aged BBB, ALPL inhibition vs control): 10.9% | pct, ALPL inh., Slc39a10 (transporter gene Slc39a10, ALPL inhibitor-treated group): 0.89 | % increase, Slc39a10 (transporter gene Slc39a10, aged BBB, ALPL inhibition vs control): 12.1% | % increase, Slc40a1 (transporter gene Slc40a1 (ferroportin), aged BBB, ALPL inhibition vs control): 35.0% | pct, ALPL inh., Slc40a1 (transporter gene Slc40a1, ALPL inhibitor-treated group): 0.62 | pct, ALPL inh., Slco1c1 (transporter gene Slco1c1, ALPL inhibitor-treated group): 0.97 | % increase, Slco1c1 (transporter gene Slco1c1, aged BBB, ALPL inhibition vs control): 15.7%

Reference: patent publication US20230257480A1, “ENHANCING BLOOD-BRAIN BARRIER DRUG TRANSPORT BY TARGETING ENDOGENOUS REGULATORS” (THE BOARD OF TRUSTEES OF THE LELAND STANFORD JUNIOR …, priority 2019, published 2023)
